From ChEMBL document CHEMBL1137529, “Syntheses and optimization of new GS39783 analogues as positive allosteric modulators of GABA B receptors” (Bioorg Med Chem Lett, 2007) come the findings set out here.

The structures appear in SMILES notation.

A short description of series [1]: Partition coefficient, log P of the compound. Format: physicochemical. To be noted: octanol/water.
A short description of series [2]: Solubility in water. Type of series: physicochemical.
The target in series [3] is GABA-B receptor (Homo sapiens, UniProt O75899+Q9UBS5). As to the kind of experiment: Activity at GABAB 1b/2 receptor expressed in CHO-K1 cells assessed as effect on GABA-induced [35S]GTP-gamma-S binding.
GABA-B receptor, sequence (Q9UBS5 whole entry): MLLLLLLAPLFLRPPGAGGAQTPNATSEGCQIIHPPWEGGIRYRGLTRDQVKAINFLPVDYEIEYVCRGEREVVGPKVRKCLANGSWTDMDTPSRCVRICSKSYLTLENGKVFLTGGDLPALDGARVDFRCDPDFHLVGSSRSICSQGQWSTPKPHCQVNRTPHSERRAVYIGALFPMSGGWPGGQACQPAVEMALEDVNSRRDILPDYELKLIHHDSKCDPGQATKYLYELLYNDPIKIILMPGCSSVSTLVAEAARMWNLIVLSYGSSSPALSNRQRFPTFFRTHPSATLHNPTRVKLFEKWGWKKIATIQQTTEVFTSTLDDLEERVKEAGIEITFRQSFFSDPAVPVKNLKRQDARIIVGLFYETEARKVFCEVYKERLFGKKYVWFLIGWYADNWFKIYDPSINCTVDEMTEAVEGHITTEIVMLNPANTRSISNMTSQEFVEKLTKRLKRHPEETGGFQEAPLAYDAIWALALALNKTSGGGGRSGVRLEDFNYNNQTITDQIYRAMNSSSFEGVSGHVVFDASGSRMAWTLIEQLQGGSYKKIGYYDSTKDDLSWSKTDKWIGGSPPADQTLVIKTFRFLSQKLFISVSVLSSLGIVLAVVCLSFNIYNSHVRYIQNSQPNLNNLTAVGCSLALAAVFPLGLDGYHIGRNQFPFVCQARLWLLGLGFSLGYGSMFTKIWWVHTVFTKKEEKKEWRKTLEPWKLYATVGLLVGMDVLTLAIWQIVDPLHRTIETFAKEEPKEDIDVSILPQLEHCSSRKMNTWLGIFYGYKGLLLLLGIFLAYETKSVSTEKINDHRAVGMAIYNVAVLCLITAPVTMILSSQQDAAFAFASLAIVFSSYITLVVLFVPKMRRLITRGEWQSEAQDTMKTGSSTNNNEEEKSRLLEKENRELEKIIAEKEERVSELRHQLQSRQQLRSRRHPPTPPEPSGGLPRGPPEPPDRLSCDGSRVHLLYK
GABA-B receptor, sequence (O75899 whole entry): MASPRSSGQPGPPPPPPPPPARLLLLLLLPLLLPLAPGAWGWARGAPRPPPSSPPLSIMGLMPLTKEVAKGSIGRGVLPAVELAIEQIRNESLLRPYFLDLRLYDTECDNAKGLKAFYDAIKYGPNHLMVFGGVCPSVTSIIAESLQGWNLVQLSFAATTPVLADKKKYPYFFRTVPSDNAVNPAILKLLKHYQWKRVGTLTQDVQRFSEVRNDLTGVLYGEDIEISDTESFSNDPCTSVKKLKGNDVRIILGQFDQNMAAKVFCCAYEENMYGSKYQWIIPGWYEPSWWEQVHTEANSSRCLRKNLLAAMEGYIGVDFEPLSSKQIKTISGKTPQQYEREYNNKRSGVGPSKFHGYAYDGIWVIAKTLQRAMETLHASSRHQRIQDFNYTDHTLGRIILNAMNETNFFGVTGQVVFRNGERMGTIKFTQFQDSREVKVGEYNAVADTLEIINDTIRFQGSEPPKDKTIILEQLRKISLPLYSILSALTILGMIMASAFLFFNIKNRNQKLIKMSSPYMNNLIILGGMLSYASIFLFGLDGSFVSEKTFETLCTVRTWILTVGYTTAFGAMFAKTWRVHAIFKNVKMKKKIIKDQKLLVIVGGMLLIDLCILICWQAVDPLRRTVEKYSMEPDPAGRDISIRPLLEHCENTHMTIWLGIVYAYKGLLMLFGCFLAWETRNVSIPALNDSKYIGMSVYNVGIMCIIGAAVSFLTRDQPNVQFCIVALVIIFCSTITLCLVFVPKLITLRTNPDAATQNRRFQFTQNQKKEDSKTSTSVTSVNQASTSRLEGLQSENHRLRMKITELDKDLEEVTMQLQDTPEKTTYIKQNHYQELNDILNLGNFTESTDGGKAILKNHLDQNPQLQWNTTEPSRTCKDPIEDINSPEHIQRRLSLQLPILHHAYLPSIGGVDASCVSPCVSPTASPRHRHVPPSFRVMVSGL

Turning to `Cc1ncc(-c2ccc(C(F)(F)F)cc2)c(NC2C3CC4CC(C3)CC2C4)n1` (configuration not stated), in series [1], the logP was more than 5.9. In series [2], this compound yielded a solubility of less than 10 µg/mL.

For the compound `Cc1ncc(-c2ccc(C(F)(F)F)cc2)c(NC2CCCCCC2)n1`, the EC50 in series [3] was 1.66 µM.

`Cc1ncc(-c2ccc(OC(F)(F)F)cc2)c(NC2CCCC2)n1`: the EC50 in series [3] was 4.57 µM.

In series [1], `Cc1ncc(-c2ccc(C(F)(F)F)cc2)c(NC23CC4CC(CC(C4)C2)C3)n1` returned a logP of more than 5.9. In series [2], the solubility was less than 10 µg/mL.

As for `COc1ncc(-c2ccc(C(F)(F)F)cc2)c(N[C@@H]2C[C@@H]3CC[C@H]2C3)n1`, the EC50 in series [3] was 2.04 µM.
